Source: US10946098B2, “Activatable two-component photosensitizers” (Carnegie Mellon University, priority 2014, dated 2021)
Like-named read-outs stand apart in the source and are kept apart here.

Assays:
[1] = standard for 1O2 generation; cited from earlier work
[2] = system: cell surface EGFR (A431 cells); assay: Cell surface EGFR labeling by ZEGFR:1907 fusion probes on A431 cells; assay type: binding, human
Method: The labeling of cell surface EGFR by ZEGFR:1907 fusion probes was tested with A431 cells, a cell line that expressed EGFR at high levels, ˜2000000/cell. […] By equilibrium binding fluorescence, the cell surface dissociation constant was estimated to be 122±16 nM for AF, 101±17 nM for FA and 37±6 nM for AFA.

[3] = Recombinant ZEGFR:1907/FAPdL5** probes binding to malachite green; settings: for Kd / kon (*10^6M^−1S^−1): binding to malachite green; for Em (nm) / Ex (nm): probe with MG
Method: N and C-terminal fusions were evaluated, as well as a single FAP flanked by two affibodies for their properties to bind and activate MG-fluorogens as well as their binding to target receptors on cultured cells.
Characterization of recombinant probes affibody ZEGFR:1907 (A) and FAPdL5** (F) binding to malachite green.

dL5 [4] = assay: Fluorescence excitation/emission of fluorogen bound to dL5; assay type: physicochemical; settings: for λem (nm) / λex (nm): FAP-fluorogen complex; for +dL5 fluor ex (nm): main value
dL5 [5] = assay: Fluorescence quantum yield using Cy5 as standard; assay type: physicochemical; settings: fluorescence quantum yield of FAP-fluorogen, PBS7.4
Method: (§1) FIGS. 7A-7C: FIG. 7A) KD measurement of MG-dL5 and MG2I-dL5, FIG. 7B) absorption spectra of 1 μM MG2I and MG2I with 5 μM dL5 (shorter wavelength absorption peak), FIG. 7C): fluorescence quantum yield measurement of MG2I-dL5 (squares) using Cy5 as standard (circles).
The 3, 5-diiodo-4-hydroxybenzaldehyde, anthracene-9, 10-dipropionic acid disodium salt ADPA, were purchased from VWR international and Sigma-Aldrich, tetrasulfonated aluminum phthalocyanine AlPcS4 from frontier scientific, PEG-catalase, PEG-SOD, hoechst dye 33342, live/dead cell viability/cytotoxicity kit L-3224 and dihydroethidium (hydroethidine) D11347 were from Molecular Probes. Basic media was from Invitrogen. H NMR and C NMR data are recorded from Bruker Avance™ 300 MHz and 500 MHz. Mass spectra are obtained from Thermo-Fisher LCQ ESI/APCI Ion Trap. Final products are purified by silica, neutral alumina and reverse-phase chromatography, purity were tested by UPLC. Raw absorbance values of respective free dyes and dye-FAP complex were measured on a PerkinElmer Lambda45 spectrophotometer. Fluorogenic enhancement was measured in 96 well microplates on a Tecan Safire2 reader. Quantum yields were determined by comparing integrated spectra of MG2I-dL5 complexes with Cy5 in PBS7.4 on a Quantamaster monochromator fluorimeter (Photon Technology International).

[6] = Singlet oxygen quantum yield by ADPA bleaching, AlPcS4 standard; assay type: physicochemical; settings: singlet oxygen quantum yield of FAP-fluorogen
Method: Determination of singlet oxygen quantum yield: PBS 7.4 solution contains 0.1 mM ADPA and optically matched samples are illuminated from a 660 nm LED source, at different time point, its fluorescence decrease at 374/402 nm was recorded, the data was then fitted into a linear plot, the ψΔ was then calculated from the slopes using the equation below.
To test the two-component FAP photosensitizer ability to generate singlet oxygen, anthracene-9, 10-dipropionic acid (ADPA), a commonly used singlet oxygen scavenger, was used. This was done by monitoring the fluorescence disappearance of ADPA at 374/402 nm. Aluminum phthalocyanine tetrasulfonate (AlPcS4) was used as the standard for the measurement of ^1O2 generation (ψΔ=0.34). Optically matched solutions of MG2I-dL5 and AlPcS4 at 660 nm are compared and the singlet oxygen quantum yield of the two-component FAP photosensitizer is estimated to be 0.13 (FIG. 8). […] This confirmed the specific generation of singlet oxygen from the complex. Importantly, both the fluorescent quantum yield and the singlet oxygen quantum yield of free dyes are not detectable under normal excitation conditions, due to the very short excited state lifetime (<1 […]). […] Moreover, with near infrared excitation, this genetically encoded complex is accessible for a range of tumors and can also be used as tool for tumor visualization with fair fluorescence.

dL5 [7] = assay: KD measurement of fluorogen-dL5; settings: fluorogen binding to dL5
Method: as §1
The iodination effect produces a 22 nm bathochromic shift of the x band of free MG while maintaining the FAP-fluorogen interactions. The iodination also renders the excitation maximum of MG2I-dL5 to 666 nm (compare to MG-dL5 at 633 nm), into the near infrared range (Table 1). FIGS. 7A-7C depict (FIG. 7A) KD measurement of MG-dL5 and MG2I-dL5, (FIG. 7B) absorption spectra of 1 μM MG2I and MG2I with 5 μM dL5 (shorter wavelength absorption peak), and (FIG. 7C) fluorescence quantum yield measurement of MG2I-dL5 (squares) using Cy5 as standard (circles).

[8] = Absorbance of free fluorogens; assay type: physicochemical; settings: for x band abs max (nm) / y band abs max (nm) / λAbs (nm) (Fluorogen): free fluorogen; for ε (10^4 M^−1cm^−1): second value in parentheses not explained
[9] = system: cardiac function of zebrafish larvae; assay: Photo-ablation of cardiac function of larval zebrafish; assay type: in vivo; settings: 500 nM fluorogen 3 hours
Excerpt: MG2I-FAP induced photo-ablation of cardiac function of transgenic zebrafish. […] In both control groups, development proceeded normally. Scale Bar=1000 μm and applied to all images.
First, transgenic zebrafish lines were produced that expressed a cytoplasmic FAP-mCerulean3 (FAP-mCer3) tandem protein under control of the heart-specific myosin light chain 7 (my17, also known as cmlc2) promoter, Tg(my17: FAP-mCer3). […] FIG. 19 are photomicrographs of zebrafish larvae as described above. White denotes the presence of cytoplasmic FAP-mCerulean3 in live cells.

wild-type HEK cells = assay type: cell-based
Method: (§2) FAP-conjugated HER1 affibody was used to target EGFR over-expressing tumor cells A431 in cell cultures mixed with wild-type HEK cells. 250 nM affiFAP was first added to label A431 cells, followed by 250 nM MG2I/MG. […] It is shown that the tumor cells need to be targeted first by the HER1-dL5 affibody, and become accessible to photosentisization only after MG2I is added and bound to the affiFAP. […] Thus, by controlling the specific generation of singlet oxygen on the tumor site, we can eliminate the nonspecific damage to normal cells. […] This improvement to the current state-of-the-art photodynamic therapy will be of great utility, for example with the methods and modularity described herein.

SKBR3 cancer cells = assay: Selective killing of SKBR3 cancer cells; assay type: cell-based; settings: 100 nM HER2 conjugated dL5 then 100 nM MG2I
Method: 100 nM HER2 conjugated dL5 was first added to the cells following by 100 nM MG2I.
as §2

cells = assay: Toxicity of free MG2I to cells; assay type: cell-based
[10] = system: EGFR over-expressing tumor cells A431; assay: Selective cancer cell killing, A431 mixed with wild-type HEK; assay type: cell-based; settings: 250 nM affiFAP (FAP-conjugated HER1 affibody) then 250 nM dye
Method: AffiFAP/FAP was added first and allow cell targeting for 30 minutes, MG2I/MG-ester was then added and incubated for another 30 minutes (No washing is needed in the process). After 1 min illumination (60× objective, 2.43 W/cm^2), Dead/Live working solution was used to replace the cell culture medium. Two-color viability fluorescence assay was performed after 1 hr staining
as §2

[11] = system: HEK cells transfected to express FAP
Method: Dead/Live cell viability assay: 400 nM dye (MG/MG-2I) was pre-complex with cells for 30 mins. After illumination, the buffer was replaced with 2 μM calcein AM and 4 μM EthD-1 working solution. After 30 min incubation at room temperature, the two-color fluorescence cell viability test was conducted with the cells.
Cell killing experiment and cell death count: MG/MG2I was added to the cells 30 minutes before illumination (for A431 and SKBR3 cells, affibody conjugated FAP was added 1 hour prior to illumination). Microscope and light box are used as illumination source, different light dose are achieved by changing of light intensity or illumination time. For death cell counting, the medium was replaced with PBS containing 1 uM propidium iodide and 8 uM Hoechst right after illumination. After 30 min incubation, cells were counted and the death cell ratio is determined by the ratio of PI to Hoechst.
The light induced cytotoxicity of two-component FAP photosensitizer on HEK cells, which were transfected to express FAP on cell surface, was tested. 400 nM MG2I/MG was added to the cell medium 30 minutes prior to illumination; 1 minute of continuous red light illumination from a confocal microscope was applied to cells (40× objective, 640 nm excitation, 0.76 W/cm^2).
The cause of MG2I-dL5 induced cell cytotoxicity was further delineated by adding different ROS quenchers to the solutions.

[12] = transgenic Tg(my17: FAP-mCer3), 48 hpf, 12 minutes 659 nm 242 mW/cm^2

Aluminum phthalocyanine tetrasulfonate [AlPcS4]
ψΔ of standard [1]: 0.34

AF: fusion of affibody ZEGFR:1907 (A) and FAPdL5** (F)
cell surface labeling, live-cell imaging [2]: clear cell surface labeling | Kd [3]: 430 ± 120 pM | kon (*10^6M^−1S^−1) [3]: 1.05 *10^6M^−1S^−1 | emission peak ([3]; in the presence of MG): 664 nm | major excitation peak ([3]; in the presence of MG): 636 nm | minor excitation peak ([3]; in the presence of MG): 480 nm | Em (nm) [3]: 664 nm | Ex (nm) [3]: 634 nm

affibody: affibody ZEGFR:1907 alone (SEQ ID NO: 18)
fluorescence activation or fluorogen binding by affibody alone [3]: No detectable fluorescence activation or fluorogen binding

CCOC(=O)CCCOc1ccc(C(=C2C=CC(=[N+](C)C)C=C2)c2ccc(N(C)C)cc2)cc1 [MG, reference compound]
λem (nm) (dL5 [4]): 668 nm | λex (nm) (dL5 [4]): 633 nm | +dL5 fluor em (nm) (dL5 [4]; bound to dL5): 668 nm | +dL5 fluor ex (nm) (dL5 [4]; bound to dL5): 636 nm | +dL5 fluor ex (nm), value in parentheses (dL5 [4]; bound to dL5, second (minor) excitation peak printed in parentheses): 482 nm | ΦF (dL5 [5]): 0.123 | ΦΔ [6]: <0.005 | Kd (dL5 [7]): 5 pM | x band abs max (nm) [8]: 606 nm | y band abs max (nm) [8]: 466 nm | λAbs (nm) (Fluorogen) [8]: 606 nm | ε (10^4 M^−1cm^−1) [8]: 10.3(9.18) 10^4 M^−1cm^−1 | heart function immediately after illumination [9, 12]: normal

Methylium, bis[4-(dimethylamino)phenyl](4-(3-carboethoxypropyl)-3,5-diiodo-phenyl)-chloride [MG2I]
light induced cytotoxicity (wild-type HEK cells): no observed light-induced cytotoxicity | killing of SKBR3 cells (SKBR3 cancer cells): selective killing | λem (nm) (dL5 [4]): 693 nm | λex (nm) (dL5 [4]): 666 nm | +dL5 fluor em (nm) (dL5 [4]; bound to dL5): 693 nm | +dL5 fluor ex (nm) (dL5 [4]; bound to dL5): 666 nm | ΦF (dL5 [5]): 0.037 | ΦΔ [6]: 0.13 | toxicity to cells (cells): no toxicity to cells | Kd (dL5 [7]): 73 pM | killing of A431 cells upon illumination [10]: only the EGFR1-expressing tumor cells were killed | x band abs max (nm) [8]: 628 nm | y band abs max (nm) [8]: 440 nm | λAbs (nm) (Fluorogen) [8]: 628 nm | bathochromic shift of the x band relative to free MG ([8]; iodination effect): 22 nm | ε (10^4 M^−1cm^−1) [8]: 10.1(9.02) 10^4 M^−1cm^−1 | heart function immediately after illumination [9, 12]: no sign of heart beat or blood circulation | heart function immediately after illumination ([9]; wild-type zebrafish, 12 minutes 659 nm): normal

AFA: single FAPdL5** flanked by two ZEGFR:1907 affibodies
cell surface labeling, live-cell imaging [2]: clear cell surface labeling | Kd [3]: 530 ± 110 pM | kon (*10^6M^−1S^−1) [3]: 1.02 *10^6M^−1S^−1 | emission peak ([3]; in the presence of MG): 664 nm | fluorescence intensity compared to F and AF ([3]; in the presence of MG): enhanced fluorescence intensity | major excitation peak ([3]; in the presence of MG): 636 nm | minor excitation peak ([3]; in the presence of MG): 480 nm | Em (nm) [3]: 666 nm | Ex (nm) [3]: 634 nm

[N-]=[N+]=[N-] [sodium azide, reference compound]
inhibition of MG2I-dL5 induced cytotoxicity by ROS quencher ([11]; concentrations higher than 10 mM): totally inhibited

B1: catalase: ROS quencher enzyme (protein, UniProt P00432 2-527, looked up)
Catalase: ADNRDPASDQMKHWKEQRAAQKPDVLTTGGGNPVGDKLNSLTVGPRGPLLVQDVVFTDEMAHFDRERIPERVVHAKGAGAFGYFEVTHDITRYSKAKVFEHIGKRTPIAVRFSTVAGESGSADTVRDPRGFAVKFYTEDGNWDLVGNNTPIFFIRDALLFPSFIHSQKRNPQTHLKDPDMVWDFWSLRPESLHQVSFLFSDRGIPDGHRHMNGYGSHTFKLVNANGEAVYCKFHYKTDQGIKNLSVEDAARLAHEDPDYGLRDLFNAIATGNYPSWTLYIQVMTFSEAEIFPFNPFDLTKVWPHGDYPLIPVGKLVLNRNPVNYFAEVEQLAFDPSNMPPGIEPSPDKMLQGRLFAYPDTHRHRLGPNYLQIPVNCPYRARVANYQRDGPMCMMDNQGGAPNYYPNSFSAPEHQPSALEHRTHFSGDVQRFNSANDDNVTQVRTFYLKVLNEEQRKRLCENIAGHLKDAQLFIQKKAVKNFSDVHPEYGSRIQALLDKYNEEKPKNAVHTYVQHGSHLSAREKANL
modifications: PEG
inhibition of MG2I-dL5 induced cytotoxicity by ROS quencher ([11]; up to 1000 U/mL): very little effect in rescuing cell death
